In test [1] the test system is 4T1.2 breast cancer cells. The test is described as follows: Cytosolic Cl- influx. Format: cell-based. The conditions noted are these: mouse 4T1.2 cells. As to the method:
Cytosolic Cl^− influx. Cancer cells in suspension were treated with various doses of Ivermectin in R10 medium for 1h at 37° C. and 5% CO2. Cells were then washed with PBS and loaded with 10 μM SPQ probe (Life Technologies, M440) in a hypotonic buffer containing 50% PBS and 50% double distilled water. Following brief 15 min incubation at room temperature in the dark cells were washed once with PBS and immediately analyzed by flow cytometry measuring fluorescence in the AF350 channel.

In test [2] the test system is Calreticulin (CRT) and Mannose-6 Phosphate receptor. Nature of the test: Surface exposure of CRT and Mannose-6 Phosphate receptor. Format: cell-based, mouse, human. As to the method:
FIGS. 6A-6E. Ivermectin induces autophagy. FIG. 6A: Ivermectin induces autophagy in breast cancer cells. MDA-MB-231 GFL-LC3 cells were treated with different doses of Ivermectin for 24 h and formation of green fluorescent puncta was evaluated by confocal fluorescence microscopy. FIG. 6B: Western blot confirming the induction of autophagy in both murine and human breast cancer cells, as evidenced by LC3 lipidation and autophagic degradation of p62(SQSTM1). […] MDA-MB-231 cells (triplicates) were treated with different doses of Ivermectin for up to 24h and surface stained with antibody-specific for the human M6P receptor versus isotype control. Similarly, 4T1.2 and MB231 cells were treated with different doses of Ivermectin for 4-24 h, and were stained with an antibody specific for both human and mouse CRT versus isotype control. Mean fluorescent intensity (MFI) values and ratios versus isotype control were calculated after gating on live/membrane-intact cells. […]
Surface exposure of CRT and Mannose-6 Phosphate receptor. Surface exposure of Calreticulin (CRT) and Mannose-6 Phosphate receptor (CD220) was evaluated by staining with monoclonal antibodies specific for CRT (unconjugated, specific for both mouse and human, Abcam ab22683, and PE-conjugated, specific for human only, Abcam, ab83220) and CD220 (Thermo […]

The subject of another test is 4T1.2 cells. Nature of the test: Mitochondrial membrane potential (JC-1). Format: cell-based, mouse. As to the method: FIGS. 4A-4D. Excessive Ca^2+/CaMKII signaling and MPTP contribute to cell death. FIG. 4A: Kinetics of cytosolic Ca^2+ increase in 4T1.2 cells treated with Ivermectin. […] 4T1.2 cells were treated for 4 h with 32 μM Ivermectin in the presence of the P2X7/CaMKII dual inhibitor KN-62 or the CaMKII-specific inhibitor KN-63, at μM concentrations as indicated. FIG. 4C: Flow cytometry analysis of JC-1 loaded 4T1.2 cells showing that high doses of Ivermectin result in a sudden mitochondrial de-polarization, while lower doses cause similar effects but after transient hyper-polarization. FIG. 4D: MPTP contributes to Ivermectin. 4T1.2 cells were treated for 4 h with 32 μM Ivermectin in the presence of the MPTP inhibitor Cyclosporin A at μM concentrations as indicated. Asterisk (*) indicates p<0.05 relative to untreated or Ivermectin alone controls, respectively.
Mitochondrial membrane potential. Cancer cells in suspension were washed with PBS and loaded with 2 μM JC-1 (Life Technologies, T3168) for 15 min at room temperature in the dark. Cells were washed twice with PBS and treated with various doses of Ivermectin in R10 medium. Cells were incubated for 1 h/4 h in 5 ml FACS tubes at 37° C. and 5% CO2. After 1h/4h of treatment cells were analyzed by flow cytometry. Mitochondrial polarization was evaluated by measuring the corresponding changes in fluorescence in the FITC and PE channels. […]

Another test relates to breast cancer cells. The test is described as follows: Induction of autophagy (GFP-LC3 puncta, Western blot LC3 / p62). Format: cell-based, mouse, human. The protocol:
FIGS. 6A-6E. Ivermectin induces autophagy. FIG. 6A: Ivermectin induces autophagy in breast cancer cells. MDA-MB-231 GFL-LC3 cells were treated with different doses of Ivermectin for 24 h and formation of green fluorescent puncta was evaluated by confocal fluorescence microscopy. FIG. 6B: Western blot confirming the induction of autophagy in both murine and human breast cancer cells, as evidenced by LC3 lipidation and autophagic degradation of p62(SQSTM1). […] MDA-MB-231 cells (triplicates) were treated with different doses of Ivermectin for up to 24h and surface stained with antibody-specific for the human M6P receptor versus isotype control. Similarly, 4T1.2 and MB231 cells were treated with different doses of Ivermectin for 4-24 h, and were stained with an antibody specific for both human and mouse CRT versus isotype control. Mean fluorescent intensity (MFI) values and ratios versus isotype control were calculated after gating on live/membrane-intact cells. FIG. 6D: Ivermectin (32 μM) induces release of HMGB1 from murine and human TNBC cells (triplicates). […] Asterisk (*) indicates p<0.05 relative to untreated or Ivermectin alone controls, respectively.
Western Blotting. […] Activation and cleavage of caspases was evaluated using antibodies specific for caspase-1 (NOVUS, NBP1-45433) and caspase-3 (Cell Signaling, 9665). […]
Background: A western blot detects proteins with antibodies after separation by electrophoresis.

Test [3] concerns murine and human TNBC cells. Nature of the test: Reactive oxygen species. Format: cell-based, mouse. The protocol: Reactive oxygen and nitrogen species. Cancer cells in suspension were washed with PBS and loaded with 50 μM H2DCFDA (Molecular Probes, Life Technologies, D399) or 5 μM DAF-2 (Cayman Chemical, Catalog #85165) for 30 min at room temperature in the dark. Cells were washed twice with PBS and treated with various doses of Ivermectin in R10 medium. Cells were incubated for 1h in 5 ml FACS tubes at 37° C. and 5% CO2, and immediately analyzed by flow cytometry. Generation of intracellular ROS and NO results in corresponding increases in the GFP fluorescence of the H2DCFDA and DAF-2 probes, respectively.

The text below walks through data of patent US11058700B2, “Macrocyclic lactones and uses thereof as modulators of purinergic receptors” (City of Hope, priority 2015, dated 2021).

As for `CC[C@H](C)[C@H]1O[C@]2(CC[C@@H]1C)C[C@@H]1C[C@@H](C/C=C(\C)[C@@H](O[C@H]3C[C@H](OC)[C@@H](O[C@H]4C[C@H](OC)[C@@H](O)[C@H](C)O4)[C@H](C)O3)[C@@H](C)/C=C/C=C3\CO[C@@H]4[C@H](O)C(C)=C[C@@H](C(=O)O1)[C@]34O)O2` [Ivermectin], the “cytosolic Cl- influx” value in test [1] is recorded as “Cl^− influx”. Besides, the “surface exposure of Calreticulin (CRT)” value in test [2] (4T1.2 and MB231 cells, 4-24 h) is listed as “does not significantly impact surface CRT”. Further, in test [2] (MDA-MB-231 cells, up to 24 h), the “plasma membrane exposure of M6P receptors” value was “up-regulate plasma membrane exposure of mannose-6-phosphate (M6P) receptors”. The mitochondrial polarization result with 4T1.2 cells (high doses of Ivermectin, massive cell death) is “sudden depolarization of mitochondria”; in the test on 4T1.2 cells (lower doses of Ivermectin), “mitochondrial hyperpolarization”. Also, the induction of autophagy entry in the test on breast cancer cells is given as “potent inducer of autophagy”. Also, in test [3], the “generation of ROS” value is recorded as “induces generation of ROS”.
